One block for each compound: values may come before it.
How the values were obtained:
[1] = tested on: neutrophil collagenase (MMP-8); assay: inhibition of the catalytic domain of neutrophil collagenase (MMP-8), fluorogenic substrate; type: biochemical, human; details: fluorescence 328 nm (ex)/393 nm (em), pH=6.5, 15 min preincubation
Procedure: (§1) Preparation and determination of the enzymatic activity of the catalytic domains of human stromelysin and of neutrophil collagenase.
(§2) The two enzymes--stromelysin (MMP-3) and neutrophil collagenase (MMP-8)--were prepared according to Ye et al., Biochemistry, vol. […] To measure the enzyme activity or the enzyme inhibitor action, 70 μl of buffer solution and 10 μl of enzyme solution are incubated for 15 minutes with 10 μl of a 10% strength (v/v) aqueous dimethyl sulfoxide solution, which optionally contains the enzyme inhibitor.
(§3) The buffer solution contains 0.05% Brij (Sigma, Deisenhofen, Germany) and also 0.1 mol/l tris/HCl, 0.1 mol/l NaCl, 0.01 mol/l CaCl2 and 0.1 mol/l piperazine-N,N'-bis[2-ethanesulfonic acid] (pH=6.5). The enzyme solution contains 5 μg/ml of one of the enzyme domains prepared according to Ye et al. The substrate solution contains 1 mmol/l of the fluorogen ic substrate (7-methoxycoumarin4-yl)acetyl-Pro-Leu-Gly-Leu-3-(2',4'-dinitrophenyl)-L-2,3-diaminopropionyl-Ala-Arg-NH2 (Bachem, Heidelberg, Germany).
(§4) The enzyme activity is shown as the extinction increase/minute.

[2] = molecular target: T1, human stromelysin (MMP-3) (Homo sapiens, UniProt P08254); assay: inhibition of the catalytic domain of human stromelysin (MMP-3), fluorogenic substrate; type: biochemical
T1 construct: catalytic domains of human stromelysin and of neutrophil collagenase; made in house
T1 sequence (P08254 100-273 limits assumed): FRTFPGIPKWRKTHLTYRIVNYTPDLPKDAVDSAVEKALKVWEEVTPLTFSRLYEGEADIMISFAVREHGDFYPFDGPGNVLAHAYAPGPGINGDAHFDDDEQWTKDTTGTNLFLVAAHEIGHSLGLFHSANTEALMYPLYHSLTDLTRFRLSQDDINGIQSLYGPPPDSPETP
Procedure: as §1, §2, §3, §4

Compound: CC(C)(C)OC(=O)Nc1ccc2c(c1)CN(S(=O)(=O)c1ccc(-c3ccc(F)cc3)cc1)[C@@H](C(=O)NO)C2 [Example 27]
- IC50 [1]: 10 nM
- IC50 [2]: 100 nM

Compound: Nc1ccc2c(c1)CN(S(=O)(=O)c1ccc(-c3ccc(F)cc3)cc1)[C@@H](C(=O)O)C2 [Example 22]
- IC50 [1]: 8 nM
- IC50 [2]: 300 nM

Compound: C[C@H](NC(=O)OCc1ccccc1)C(=O)Nc1ccc2c(c1)CN(S(=O)(=O)c1ccc(-c3ccc(Cl)cc3)cc1)[C@@H](C(=O)O)C2 [Example 24]
- IC50 [1]: 60 nM
- IC50 [2]: 300 nM

- IC50 [1]: 30 nM
Compound: O=C(O)[C@H]1Cc2ccc([N+](=O)[O-])cc2CN1S(=O)(=O)c1ccc(-c2ccc(Cl)cc2)cc1 [Example 15]

- IC50 [1]: 20 nM
Compound: O=C(O)[C@H]1Cc2cc([N+](=O)[O-])ccc2CN1S(=O)(=O)c1ccc(-c2ccc(Cl)cc2)cc1 [Example 16]

- IC50 [1]: 40 nM
Compound: O=C(O)[C@H]1Cc2ccc([N+](=O)[O-])cc2CN1S(=O)(=O)c1ccc(-c2ccc(F)cc2)cc1 [Example 17]

Compound: Nc1ccc2c(c1)CN(S(=O)(=O)c1ccc(-c3ccc(F)cc3)cc1)[C@@H](C(=O)NO)C2 [Example 28]
- IC50 [1]: 2 nM
- IC50 [2]: 20 nM

- IC50 [1]: 20 nM
Compound: O=C(O)[C@H]1Cc2cc([N+](=O)[O-])ccc2CN1S(=O)(=O)c1ccc(-c2ccc(F)cc2)cc1 [Example 18]

Compound: Nc1ccc2c(c1)C[C@H](C(=O)O)N(S(=O)(=O)c1ccc(-c3ccc(F)cc3)cc1)C2 [Example 21]
- IC50 [1]: 8 nM
- IC50 [2]: 200 nM

Compound: CC(N)C(=O)Nc1ccc2c(c1)CN(S(=O)(=O)c1ccc(-c3ccc(Cl)cc3)cc1)[C@@H](C(=O)O)C2 (some centres unmarked) [Example 25]
- IC50 [1]: 10 nM
- IC50 [2]: 200 nM

Compound: CC(C)(C)OC(=O)Nc1ccc2c(c1)CN(S(=O)(=O)c1ccc(-c3ccc(F)cc3)cc1)[C@@H](C(=O)O)C2 [Example 20]
- IC50 [1]: 100 nM
- IC50 [2]: 2000 nM

Compound: COc1ccc(S(=O)(=O)N2Cc3cc(N)ccc3C[C@@H]2C(=O)NO)cc1 [Example 10, 2-(4-Methoxybenzenesulfonyl)-7-amino-1,2,3,4-tetrahydroisoquinoline-(R)-3-(N-hydroxy)carboxamide]
- IC50 [2]: 10 nM

Compound: COc1ccc(S(=O)(=O)N2Cc3cc(NC(=O)OC(C)(C)C)ccc3C[C@@H]2C(=O)NO)cc1 [Example 11]
- IC50 [1]: 3 nM
- IC50 [2]: 20 nM

Compound: COc1ccc(S(=O)(=O)N2Cc3cc(NC(=O)CCC(=O)O)ccc3C[C@@H]2C(=O)NO)cc1 [Example 31]
- IC50 [1]: 4 nM
- IC50 [2]: 20 nM

Compound: COc1ccc(S(=O)(=O)N2Cc3cc(NC(=O)[C@H](CC(=O)OC(C)(C)C)NC(=O)OCc4ccccc4)ccc3C[C@@H]2C(=O)NO)cc1 [Example 32]
- IC50 [1]: 10 nM
- IC50 [2]: 400 nM

Compound: COc1ccc(S(=O)(=O)N2Cc3cc(NC(=O)[C@H](C)N)ccc3C[C@@H]2C(=O)NO)cc1 [Example 30]
- IC50 [2]: 30 nM
